Results: patent US20040254371A1, “New benzothiazine and benzothiadiazine compounds” (priority 2003, published 2004)

System: AMPA receptors
Test: Excitatory currents induced by AMPA in Xenopus oocytes (voltage-clamp)
Format: cell-based
Conditions: Xenopus oocytes injected with rat cerebral cortex poly(A+) mRNA, AMPA 10 μM, 20-24° C.
Protocol: Study of the excitatory currents induced by AMPA in Xenopus oocytes
mRNA's are prepared from cerebral cortex of male Wistar rats by the guanidinium thiocyanate/phenol/chloroform method. The poly (A^+) mRNA's are isolated by chromatography on oligo-dT cellulose and injected at a level of 50 ng per oocyte. The oocytes are incubated for 2 to 3 days at 18° C. to permit expression of the receptors and are then stored at 8-10° C.
Electrophysiological recording is carried out in a Plexiglass® chamber at 20-24° C. in OR2 medium (J. Exp. Zool., 1973, 184, 321-334) by the “voltage-clamp” method using two electrodes, with a third electrode placed in the bath serving as reference.
All the compounds are applied via the incubation medium and the electric current is measured at the end of the application period. AMPA is used in a concentration of 10 μM. For each compound studied, the concentration that doubles (EC2X) or quintuples (EC5X) the intensity of the current induced by AMPA alone (5 to 50 nA) is determined.

| SMILES | EC2X (concentration that doubles the intensity of the current induced by AMPA alone) [µM] | EC5X (concentration that quintuples the intensity of the current induced by AMPA alone) [µM] |
| --- | --- | --- |
| O=S1(=O)NC2CCCN2c2ccc(Oc3cccc(-c4nnn[nH]4)c3)cc21 (stereo not drawn) [Example 1, 7-[3-(1H-Tetrazol-5-yl)phenoxy]-2,3,3a,4-tetrahydro-1H-pyrrolo-[2,1-c][1,2,4]benzothiadiazine 5,5-dioxide] | 0.2 | 0.8 |
| O=S1(=O)NC2CCCN2c2ccc(Oc3cccc(-c4cnco4)c3)cc21 (stereo not drawn) [Example 18, 7-[3-(1,3-Oxazol-5-yl)phenoxy]-2,3,3a,4-tetrahydro-1H-pyrrolo-[2,1-c][1,2,4]benzothiadiazine 5,5-dioxide] | 0.66 | 4 |
| O=S1(=O)NC2CCCN2c2ccc(Oc3cccc(-c4ccoc4)c3)cc21 (stereo not drawn) [Example 17, 7-[3-(3-Furyl)phenoxy]-2,3,3a,4-tetrahydro-1H-pyrrolo[2,1-c][1,2,4]benzothiadiazine 5,5-dioxide] | 4.5 | 11.5 |
